Measured values as given in patent publication CN103483288A, “一类3,4-二氯异噻唑双酰肼类化合物及其制备方法和用途” (priority 2013, dated 2014).
Like-named read-outs stand apart in the source and are kept apart here.

Columns and labels:
Assay type in all cases: in vivo
[1] = test system: diamondback moth (小菜蛾); experiment: 小菜蛾杀虫活性, 叶片药膜法; details: for mortality at 200 µg/mL: Plutella xylostella, read-out: kill rate
[2] = test system: tobacco mosaic virus (烟草花叶病毒(TMV)); experiment: 诱导烟草抗TMV活性 (活体诱导); details: for inhibition at 100 µg/mL: Tobacco mosaic virus, read-out: antiviral activity (inhibition rate): induction activity
[3] = test system: tobacco mosaic virus (烟草花叶病毒(TMV)); experiment: 直接抗TMV活性, 半叶法; details: for inhibition at 100 µg/mL: Tobacco mosaic virus
[4] = 200 mg/L, 2nd instar larvae, 96 h or 120 h
[5] = induced resistance of tobacco to TMV
[6] = induced resistance of tobacco to TMV, 100 mg/L
[7] = TMV, 100 mg/L, read-out: antiviral activity (inhibition rate): curative activity
[8] = TMV, 100 mg/L, read-out: antiviral activity (inhibition rate): inactivation activity
[9] = TMV, 100 mg/L, read-out: antiviral activity (inhibition rate): protective activity

Row | Structure (SMILES) | kill rate [1, 4] | induction activity (in words) [2, 5] | direct antiviral activity (in words) ([3]; TMV) | inhibition at 100 µg/mL [2, 6] | inhibition at 100 µg/mL [3, 7] | inhibition at 100 µg/mL [3, 8] | inhibition at 100 µg/mL [3, 9] | other results
1 | CNC(=O)c1cc(Cl)cc(C)c1NC(=O)c1cc(Br)nn1-c1ncccc1Cl [氯虫苯甲酰胺] | 100% | – | – | – | – | – | – | mortality at 200 µg/mL [1, 4]: 100%
2 | CNCC(=O)NC(CO)C(=O)NC1C(C(N)=O)OC(n2ccc(N)nc2=O)C(O)C1O (stereo not shown) [宁南霉素] | – | 几乎没有诱导活性 | 具有很好的直接抗病毒活性 | – | – | – | – | inhibition at 100 µg/mL [2]: 25 ± 3.75%; inhibition at 100 µg/mL ([3]; read-out: antiviral activity (inhibition rate): curative activity): 41.7 ± 2.25%; inhibition at 100 µg/mL ([3]; read-out: antiviral activity (inhibition rate): inactivation activity): 43.1 ± 4.07%; inhibition at 100 µg/mL ([3]; read-out: antiviral activity (inhibition rate): protective activity): 42.9 ± 1.59%
3 | O=[N+]([O-])NC1=NCCN1Cc1ccc(Cl)nc1 [吡虫啉] | 0% | – | – | – | – | – | – | mortality at 200 µg/mL [1]: 0%
4 | Cc1ccc(NC(=O)c2snnc2C)cc1Cl [TDL, 噻酰菌胺] | – | 具有很好的诱导烟草产生对TMV的抗性 | – | 47.5 ± 3.75% | 23.5 ± 4.41% | 20.5 ± 3.88% | 20.1 ± 6.41% | antiviral activity (inhibition rate): induction activity [2, 6]: 47%
5 | NC(=O)c1ncn([C@@H]2O[C@H](CO)[C@@H](O)[C@H]2O)n1 [病毒唑] | – | 几乎没有诱导活性 | 具有很好的直接抗病毒活性 | 27.1 ± 4.39% | 44.1 ± 2.94% | 25.6 ± 3.87% | 46 ± 4.2% | –
